Assay results: ChEMBL document CHEMBL1201862, “PubChem BioAssay data set” (2004)
Calls of active or inactive are those of the source. Unless noted, the calls are words filed in the database; no cut-off is given here.

Tests used:
[1] = Fluorescence-based cell-based high throughput dose response assay for inhibitors of the interaction of nucleotide-binding oligomerization domain containing 2 (NOD2) and the receptor-interacting serine-threonine kinase 2 (RIPK2).; assay type: functional; conditions: Homo sapiens
[2] = non-specific 3'UTR reporter inhibition in Clone20-Shn3RL – cell-based, Renilla luciferase, cherry-picked, counter-screen for Shn3 inhibitor project, dose response (AID 624133); assay type: functional
[3] = loss of viability in HepG2 cells – cell-based, CellTiter-Glo, cherry-picked, cytotoxicity control for Shn3 inhibitor project, dose response (AID 624134); assay type: functional
[4] = biological target: T1, Latent membrane protein 1 (Human herpesvirus 4 (strain B95-8), UniProt P03230); experiment: LMP1 TES1 pathway selectivity over dsRED control – imaging, HEK293T, dual-color eGFP/dsRED, cherry-picks, selectivity assay for LMP1 NF-kB inhibitor project, dose response (AID 588398); assay type: functional, cell-based
T1 sequence (P03230 whole entry): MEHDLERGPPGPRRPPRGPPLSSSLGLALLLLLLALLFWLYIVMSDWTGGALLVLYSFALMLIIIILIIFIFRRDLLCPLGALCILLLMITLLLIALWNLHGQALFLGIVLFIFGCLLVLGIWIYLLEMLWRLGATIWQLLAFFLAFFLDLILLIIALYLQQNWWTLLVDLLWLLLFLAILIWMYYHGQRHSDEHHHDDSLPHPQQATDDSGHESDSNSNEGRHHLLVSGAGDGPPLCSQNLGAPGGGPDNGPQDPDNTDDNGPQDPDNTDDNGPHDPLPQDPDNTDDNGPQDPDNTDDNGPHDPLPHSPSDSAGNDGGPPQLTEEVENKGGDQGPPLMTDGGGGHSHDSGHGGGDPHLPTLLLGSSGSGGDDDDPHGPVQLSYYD

[5] = test system: HEK293; experiment: EBV LMP1 TES2 canonical NF-kB signalling blockers – cell-based, HEK293, luciferase, cherry-pick, dose response (AID 588343); assay type: functional; conditions: Homo sapiens
[6] = reduction of Shn3 3'UTR-driven luciferase in osteoblasts – cell-based, Clone20 osteoblasts, firefly luciferase, cherry-picked, dose response (AID 624132); assay type: functional;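 further: firefly luciferase luminescence from reporter carrying the Shn3 3'UTR in osteoblasts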
[7] = viability inhibitors of stage V gametocytes – luminescence, dose response (AID 1117278); assay type: functional, cell-based;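 further: gametocytes exposed to compound for 24 hours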
[8] = viability loss in human Jurkat cells – cell-based, luminescence, cytotoxicity control for P. falciparum gametocyte viability project, dose response (AID 1117277); assay type: functional;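 further: potency reflects loss of cellular ATP meaning fewer viable cells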
[9] = biological target: T2, Small ubiquitin-related modifier 1 (Homo sapiens, UniProt P63165); experiment: SUMO1 protein interaction blockers, potency – biochemical, fluorescence polarization, uHTS hits, dose response (AID 624382); assay type: functional; conditions: read-out: IC50_Mean
[10] = biological target: T2, Small ubiquitin-related modifier 1; experiment: SUMO1 protein-protein binding blockers, potency – biochemical, FRET, dose response (AID 624383); assay type: functional; conditions: read-out: IC50_Mean
[11] = biological target: Lethal factor (Bacillus anthracis, UniProt P15917); experiment: High-throughput multiplex microsphere dose response for inhibitors of toxin protease, specifically Lethal Factor protease, compounds from Powder Set 01.; assay type: functional, Bacillus anthracis str. A2012; conditions: read-out: EC50_MICROM
[12] = biological target: T3, Botulinum neurotoxin type A (Clostridium botulinum (strain Hall / ATCC 3502 / NCTC 13319 / Type A), UniProt P0DPI1); experiment: Confirmatory FRET assay using full length substrates for Botulinum neurotoxin light chain A protease, with Powder Set01.; assay type: functional
[13] = biological target: T3, Botulinum neurotoxin type A; experiment: High-throughput multiplex microsphere dose response for inhibitors of toxin protease, specifically Botulinum neurotoxin light chain A protease, compounds from Powder Set 01.; assay type: functional, Clostridium botulinum A str. ATCC 3502; conditions: read-out: EC50_MICROM
[14] = biological target: Botulinum neurotoxin type F (Clostridium botulinum, UniProt P30996); experiment: High-throughput multiplex microsphere dose response for inhibitors of toxin protease, specifically Botulinum neurotoxin light chain F protease, compounds from Powder Set 01.; assay type: functional, Clostridium botulinum Bf; conditions: read-out: EC50_MICROM
[15] = biological target: T4, Sentrin-specific protease 1 (Homo sapiens, UniProt Q9P0U3); experiment: SENP1 catalytic domain blockers, concentration series – biochemical, kinetic FRET, dose response (AID 651697); assay type: functional; conditions: read-out: IC50_Mean
T4 sequence (Q9P0U3 whole entry): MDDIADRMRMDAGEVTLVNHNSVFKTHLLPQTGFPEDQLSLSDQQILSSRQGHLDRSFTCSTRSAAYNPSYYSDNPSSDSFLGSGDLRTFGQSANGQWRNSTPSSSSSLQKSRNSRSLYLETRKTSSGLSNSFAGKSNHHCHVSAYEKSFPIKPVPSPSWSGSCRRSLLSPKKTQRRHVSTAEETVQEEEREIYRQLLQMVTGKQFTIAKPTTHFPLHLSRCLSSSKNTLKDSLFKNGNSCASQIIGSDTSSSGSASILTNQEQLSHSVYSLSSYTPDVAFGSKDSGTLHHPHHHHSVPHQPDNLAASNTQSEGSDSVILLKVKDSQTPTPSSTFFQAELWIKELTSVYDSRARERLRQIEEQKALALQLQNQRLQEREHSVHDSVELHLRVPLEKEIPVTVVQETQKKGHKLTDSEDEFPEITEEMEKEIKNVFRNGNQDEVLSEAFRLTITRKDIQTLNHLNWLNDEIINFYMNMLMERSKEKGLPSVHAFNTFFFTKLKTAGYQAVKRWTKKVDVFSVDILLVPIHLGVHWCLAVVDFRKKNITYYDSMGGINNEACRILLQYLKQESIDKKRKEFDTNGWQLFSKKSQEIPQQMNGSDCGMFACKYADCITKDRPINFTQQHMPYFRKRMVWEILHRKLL

[16] = biological target: T4, Sentrin-specific protease 1; experiment: Dose response confirmation of small molecule inhibitors of the catalytic domain of the SUMO protease, SENP1 in a FRET assay.; assay type: functional; conditions: read-out: IC50_Mean
[17] = biological target: T5, Probable nicotinate-nucleotide adenylyltransferase (Staphylococcus aureus (strain N315), UniProt P65502); assay type: functional, Staphylococcus aureus subsp. aureus N315;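 on IC50 Mean: confirmatory dose-response retesting of NadD inhibitor hits first found in an ultra-high-throughput screen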
[18] = biological target: T5, Probable nicotinate-nucleotide adenylyltransferase; assay type: functional, Staphylococcus aureus subsp. aureus N315; conditions: read-out: IC50_Mean
[19] = test system: Cryptococcus neoformans; experiment: PubChem AID 686997; assay type: functional, organism-based
[20] = test system: Cryptococcus neoformans; experiment: Cryptococcus growth inhibition by alamar blue – cell lysis, cherry-picks, replicate tests, mechanism study for C. neoformans antifungal project, dose response (AID 686999); assay type: functional, organism-based
[21] = inhibitors of EBV LMP1 NF-kappaB signaling – cell-based, luciferase reporter, luminescence, dry powder, set 2, dose response (AID 624376); assay type: functional
[22] = TNFa-induced NF-kB reporter signal decrease – HEK293 LMP1 reporter cells, dry powder, set 2, selectivity assay for EBV LMP1 NF-kB inhibitor project, dose response (AID 624369); assay type: functional

In the case of `O=C1C(=C(c2ccccc2)N2CCOCC2)Cc2ccccc21`, the IC50 [1] is reported as 1.34 µM (active), the AC50 [2] is reported as 5.97 µM (active) and the AC50 [3] is reported as 38.4 µM (active). For the same compound, the AC50 [4] was 2.98 µM (active), the AC50 [5] was 4.87 µM (active) and the AC50 [6] was 0.999 µM (active).
With `Cc1ccc(N2C(=S)SC3CS(=O)(=O)CC32)cc1` (configuration not stated) the IC50 [7] was > 109 µM (inactive), the IC50 [8] was > 83.2 µM (inactive) and the IC50 [9] was > 66.6 µM (inactive). For the same compound, the IC50 [10] was 100 µM (inactive).
With `O=C(Nc1ccc2nc(-c3cccs3)c(-c3cccs3)nc2c1)N1CCCCC1` the EC50 [11] was 6.7 µM (active), the EC50 [12] was 6.9 µM (active) and the EC50 [13] was 6.1 µM (active). The EC50 [14] was 4.6 µM (active).
For `CCOC(=O)C1=C(C)N=c2sc(=Cc3cc(Cl)c(OCC(=O)O)c(Cl)c3)c(=O)n2C1c1cccc(OC)c1` (configuration not stated), the IC50 [15] was 19.6 µM (active), the IC50 [16] was 12.8 µM (active) and the IC50 [17] was 5.18 µM (active). The IC50 [18] was 19.2 µM (active).
For `COC(=O)C1=C(C)N(Cc2ccc(Cl)cc2)C(=S)NC1c1ccc(Br)cc1` (configuration not stated), the AC50 [19] was 27.3 µM (active) and the AC50 [20] was 29.1 µM (active).
With `O=C(C[C@@H]1C[C@H]2c3cc(NS(=O)(=O)c4ccc(F)cc4)ccc3O[C@H]2[C@H](CO)O1)NCc1ccc(Oc2ccccc2)cc1` the AbsAC35 [21] was 65.62 µM and the AbsAC35 [22] was 42.88 µM.
